Key:
PD-1 = molecular target: T1, PD-1 (Mus musculus, UniProt Q02242); test: Immunoprecipitation of PD-1 and Western blot of PD-1 bound ITK and SHP2; type: cell-based; settings: pre-activated primary mouse CD4 T cells, PD-1 immune-precipitated 5 minutes after treatment, Western blot, compared to control Ab
T1 construct: endogenous in cells
T1 sequence (Q02242 25-288): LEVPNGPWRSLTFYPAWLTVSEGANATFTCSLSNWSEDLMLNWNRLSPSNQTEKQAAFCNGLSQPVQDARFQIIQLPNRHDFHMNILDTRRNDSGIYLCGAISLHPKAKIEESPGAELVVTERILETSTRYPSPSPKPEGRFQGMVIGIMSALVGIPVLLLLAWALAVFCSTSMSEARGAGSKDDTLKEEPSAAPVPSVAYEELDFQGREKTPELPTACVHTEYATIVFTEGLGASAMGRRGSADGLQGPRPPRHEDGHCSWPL
Method: FIGS. 4 and 5 show the modulation of ITK and its effects on immune response. […] However, when there is more ITK than SHP2, a stimulatory signal was generated. When there is the same amount of ITK and SHP2, the immune response was either inhibitory or activating. […] Thus, an activator of ITK would have the effect of enhancing an immune response and an inhibitor of ITK can suppress the immune response. […] PD-1 was immune-precipitated with beads 5 minutes after pre-activated primary mouse CD4 T cells were treated with PD-L1-IgG, PD-L2-IgG or anti-PD-1 mouse blocking antibody (clone RMP1-14).

human CD4 T cells = test: Flow cytometry of Tcm and Tte after PD-L2-IgG treatment of stimulated T cells; type: cell-based; settings: 25 μg/mL, 48 hours after treatment, vs untreated, p<0.05
Method: After 72 hours, the cells were treated with PD-L2-IgG at concentration of 25 μg/mL. Control wells were left untreated. Forty-eight hours after treatment, the cells were collected, washed and stained with the fluorophore labeled antibodies, and analyzed by flow cytometry. Tom were defined as CD45RO^high/CD62L^high/CD45RA^low. Exhausted T cells or terminal effector T cells (“Tte”) were defined as CD45RO^low/CD62L^low/CD45RA^high.

ITK/SHP2 ratio (PD-1 bound ITK and SHP2) (PD-1): increased
Substance: PD-L2-IgG: PD-L2 fused to IgG, used to treat T cells; sequence not stated at the place
Tcm (CD45RO high/CD62L high/CD45RA low) (human CD4 T cells): significant increase | Tte (exhausted or terminal effector T cells, CD45RO low/CD62L low/CD45RA high) (human CD4 T cells): significant decrease

From patent US20250051419A1, “POLYPEPTIDE MODULATORS” (Georgiamune Inc., priority 2021, published 2025)
